Measurements from US11667649B2, “Heteroaromatic macrocyclic ether chemotherapeutic agents” (Nuvalent, Inc., priority 2020, dated 2023).

Test system: TPM3-NTRK1-wt IC50 / primary target (e.g. CD74-ROS1-wt) IC50, Ba/F3 cells
Experiment: Cell assay TRKA selectivity (TRKA potency divided by primary target potency)
Format: cell-based
Conditions: for TPM3-NTRK1-wt/CD74-ROS1-G2032R: TRKA selectivity ratio: TPM3-NTRK1-wt IC50 / CD74-ROS1-G2032R IC50, Ba/F3 cells; for TPM3-NTRK1-wt/CD74-ROS1-wt: TRKA selectivity ratio: TPM3-NTRK1-wt IC50 / CD74-ROS1-wt IC50, Ba/F3 cells; for TPM3-NTRK1-wt/EML4-ALK-L1196M-G1202R: TRKA selectivity ratio: TPM3-NTRK1-wt IC50 / EML4-ALK-L1196M-G1202R IC50, Ba/F3 cells; for TPM3-NTRK1-wt/EML4-ALK-wt: TRKA selectivity ratio: TPM3-NTRK1-wt IC50 / EML4-ALK-wt IC50, Ba/F3 cells
Outline: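 Ratio of TRKA to primary-target cellular IC50 (e.g. TPM3-NTRK1-wt/CD74-ROS1-wt), grouped into bins A >30, B >10, C ≥1, D <1. Each IC50 came from engineered Ba/F3 fusion lines grown without IL-3, dosed for 72 h and read as CellTiter-Glo luminescence, with a four-parameter logistic fit.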

| Structure (SMILES) | TPM3-NTRK1-wt/CD74-ROS1-G2032R | TPM3-NTRK1-wt/CD74-ROS1-wt | TPM3-NTRK1-wt/EML4-ALK-L1196M-G1202R | TPM3-NTRK1-wt/EML4-ALK-wt |
| --- | --- | --- | --- | --- |
| C[C@H]1Oc2cc(cnc2N)-c2c(nnn2CC2CC2)Cc2cc(C(F)(F)F)nn2-c2ccc(F)cc21 [Example 128, (19R)-3-(cyclopropylmethyl)-16-fluoro-19-methyl-10-(trifluoromethyl)-20-oxa-3,4,5,11,12,23-hexaazapentacyclo[19.3.1.0^2,^6.0^8,^12.0^13,^18]pentacosa-1(24),2(6),4,8,10,13,15,17,21(25),22-decaen-22-amine] | A (bin A for very high selectivity, ratio>30-fold) | A (bin A for very high selectivity, ratio>30-fold) | C (bin C for moderate selectivity, ratio≥1) | B (bin B for high selectivity, ratio>10-fold) |
| Cc1cn2c(n1)-c1ccc(F)cc1[C@@H](C)Oc1cc(cnc1N)-c1c(c(C)nn1CC1CC1)C2 [Example 56, (19R)-3-(cyclopropylmethyl)-16-fluoro-5,10,19-trimethyl-20-oxa-3,4,8,11,23-pentaazapentacyclo[19.3.1.0^2,^6.0^8,^12.0^13,^18]pentacosa-1(24),2(6),4,9,11,13,15,17,21(25),22-decaen-22-amine] | D (bin D for low selectivity, ratio<1) | D (bin D for low selectivity, ratio<1) | D (bin D for low selectivity, ratio<1) | D (bin D for low selectivity, ratio<1) |
| CCc1nn(C)c2c1-c1cnc(N)c(c1)OCc1cc(F)ccc1-c1nc(C)sc1C2 [Example 175, 3-ethyl-16-fluoro-5,10-dimethyl-20-oxa-9-thia-4,5,11,23-tetraazapentacyclo[19.3.1.0^2,^6.0^8,^12.0^13,^18]pentacosa-1(24),2(6),3,8(12),10,13,15,17,21(25),22-decaen-22-amine] | A (bin A for very high selectivity, ratio>30-fold) | A (bin A for very high selectivity, ratio>30-fold) | B (bin B for high selectivity, ratio>10-fold) | A (bin A for very high selectivity, ratio>30-fold) |
| Cc1nn(CC2CC2)c2c1Cc1cc(C(F)F)nn1-c1ccc(F)cc1[C@@H](C)Oc1cc-2cnc1N [Example 125, (19R)-3-(cyclopropylmethyl)-10-(difluoromethyl)-16-fluoro-5,19-dimethyl-20-oxa-3,4,11,12,23-pentaazapentacyclo[19.3.1.0^2,^6.0^8,^12.0^13,^18]pentacosa-1(24),2(6),4,8,10,13,15,17,21(25),22-decaen-22-amine] | A (bin A for very high selectivity, ratio>30-fold) | A (bin A for very high selectivity, ratio>30-fold) | A (bin A for very high selectivity, ratio>30-fold) | A (bin A for very high selectivity, ratio>30-fold) |
| CCc1noc2c1-c1cnc(N)c(c1)OCc1cc(F)ccc1-c1nn(C)cc1C2 [Example 30, 3-ethyl-16-fluoro-10-methyl-5,20-dioxa-4,10,11,23-tetraazapentacyclo[19.3.1.0^2,^6.0^8,^12.0^13,^18]pentacosa-1(24),2(6),3,8,11,13,15,17,21(25),22-decaen-22-amine] | A (bin A for very high selectivity, ratio>30-fold) | A (bin A for very high selectivity, ratio>30-fold) | C (bin C for moderate selectivity, ratio≥1) | A (bin A for very high selectivity, ratio>30-fold) |
